Active and inactive are the calls of the source. The rule behind the calls is not given here.
Experiments:
[1] = Antagonist activity at folate receptor in human KB cells after 2 hrs; assay type: cell-based
[2] = Antagonist activity at folate receptor in human KB cells after 2 hrs in presence of 100 uM folic acid; assay type: cell-based
KB [3] = test: Antitumor activity against FR-positive human KB cells xenografted in nu/nu mouse assessed as reduction in tumor growth at 2 umol/kg administered as single dose for 1 week; assay type: functional, cell-based
[4] = Toxicity in mouse xenografted with FR-positive human KB cells assessed as body weight loss at 2 umol/kg administered as single dose for 1 week; assay type: cell-based; conditions: in vivo, 168 h
[5] = Toxicity in mouse xenografted with FR-positive human KB cells assessed as tissue degeneration at 300 nmol/kg administered as single dose for 1 week; assay type: cell-based; conditions: in vivo, 168 h
KB [6] = test: Antitumor activity against FR-positive human KB cells xenografted in nu/nu mouse at 300 nmol/kg administered as single dose for 1 week; assay type: functional, cell-based
[7] = Toxicity in mouse xenografted with FR-positive human KB cells assessed as body weight loss at 300 nmol/kg administered as single dose and measured up to 96 days post tumor implantation; assay type: cell-based; conditions: in vivo, 2304 h

Row | Structure (SMILES) | IC50 [1] | IC50 [2] | Activity (KB [3]) | Activity [4] | Activity [5] | Activity (KB [6]) | Activity [7]
1 | C=C1C[C@H]2C(=O)Nc3cc(OCCCCCOc4cc(N)c(C(=O)N5CC(=C)C[C@H]5C5OCCN5C(=O)OCCSSC[C@H](NC(=O)[C@H](CC(=O)O)NC(=O)[C@H](CC(=O)O)NC(=O)[C@H](CCCNC(=N)N)NC(=O)[C@H](CC(=O)O)NC(=O)CC[C@H](NC(=O)c5ccc(NCc6cnc7nc(N)[nH]c(=O)c7n6)cc5)C(=O)O)C(=O)O)cc4OC)c(OC)cc3C(=O)N2C1 (some centres undefined) | 1.12 nM | 696 nM |  |  |  |  | 
2 | C=C1C[C@@H](C2OCCN2C(=O)OCCSSC[C@@H](NC(=O)[C@H](CCC(=O)NC[C@H](O)[C@@H](O)[C@H](O)[C@H](O)CO)NC(=O)[C@@H](CCC(=O)O)NC(=O)[C@H](CCC(=O)NC[C@H](O)[C@@H](O)[C@H](O)[C@H](O)CO)NC(=O)[C@@H](CCC(=O)O)NC(=O)[C@H](CCC(=O)NC[C@H](O)[C@@H](O)[C@H](O)[C@H](O)CO)NC(=O)CC[C@H](NC(=O)c2ccc(NCc3cnc4nc(N)[nH]c(=O)c4n3)cc2)C(=O)O)C(=O)O)N(C(=O)c2cc(OC)c(OCCCCCOc3cc(N)c(C(=O)N4CC(=C)C[C@H]4C4OCCN4C(=O)OCCSSc4ccccn4)cc3OC)cc2N)C1 (some centres undefined) | 1.31 nM | 184 nM | Active |  |  |  | 
3 | C=C1C[C@@H](C2OCCN2C(=O)OCCSSC[C@@H](NC(=O)[C@H](CCC(=O)NC[C@H](O)[C@@H](O)[C@H](O)[C@H](O)CO)NC(=O)[C@@H](CCC(=O)O)NC(=O)[C@H](CCC(=O)NC[C@H](O)[C@@H](O)[C@H](O)[C@H](O)CO)NC(=O)[C@@H](CCC(=O)O)NC(=O)[C@H](CCC(=O)NC[C@H](O)[C@@H](O)[C@H](O)[C@H](O)CO)NC(=O)CC[C@H](NC(=O)c2ccc(NCc3cnc4nc(N)[nH]c(=O)c4n3)cc2)C(=O)O)C(=O)O)N(C(=O)c2cc(OC)c(OCCCCCOc3ccc(-c4nc5ccc(-c6nc7cc(N8CCN(C)CC8)ccc7[nH]6)cc5[nH]4)cc3)cc2N)C1 (some centres undefined) | 0.658 nM | 84.3 nM | Active | Toxic |  |  | 
4 | C=C1C[C@H]2C=Nc3cc(OCCCCCOc4cc(N)c(C(=O)N5CC(=C)C[C@H]5C5OCCN5C(=O)OCC(C)(C)SSCCC(=O)NCCNC(=O)CCOCCOCCOCCOCCNC(=O)CCN5C(=O)CC(SC[C@H](NC(=O)[C@H](CC(=O)O)NC(=O)[C@H](CC(=O)O)NC(=O)[C@H](CCCNC(=N)N)NC(=O)[C@H](CC(=O)O)NC(=O)CC[C@H](NC(=O)c6ccc(NCc7cnc8nc(N)[nH]c(=O)c8n7)cc6)C(=O)O)C(=O)O)C5=O)cc4OC)c(OC)cc3C(=O)N2C1 (some centres undefined) | 0.0522 nM | 3.78 nM |  |  | Toxic | Active | Toxic
